Laboratory results as given in patent publication US20130217702A1 (Richter Gedeon Nyrt., priority 2010, published 2013).

Experiments:
[1] = biological target: T1, recombinant human B1 receptors (Homo sapiens, UniProt P46663); test: Functional assay: antagonist potency by cytosolic calcium measurement (plate reader fluorimeter) in CHO-B1 cells, agonist LysDABK; type: cell-based; settings: CHO-B1 cells, inhibition of LysDABK (EC80)-evoked [Ca2+]i elevation; read-out: B1 func.
T1 construct: host or cells: CHO (CHO-B1)
T1 sequence (P46663 1-353): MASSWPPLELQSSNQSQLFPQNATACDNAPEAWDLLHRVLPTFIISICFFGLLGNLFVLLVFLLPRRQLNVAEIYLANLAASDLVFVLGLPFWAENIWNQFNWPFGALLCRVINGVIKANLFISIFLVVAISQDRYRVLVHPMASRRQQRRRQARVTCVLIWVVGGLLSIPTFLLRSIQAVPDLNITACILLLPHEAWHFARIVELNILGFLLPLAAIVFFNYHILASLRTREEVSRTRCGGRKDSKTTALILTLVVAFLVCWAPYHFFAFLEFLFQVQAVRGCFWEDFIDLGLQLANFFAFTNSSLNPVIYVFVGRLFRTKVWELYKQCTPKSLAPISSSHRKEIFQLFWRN
Outline: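 IC50 is the concentration giving half-maximal inhibition of the LysDABK (EC80) calcium response, fitted from at least three experiments. CHO cells stably expressing human B1 were dye-loaded, exposed to compound for 20-25 min, then read by fluo-4 fluorescence (ΔF/F) at 37 °C.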

[2] = biological target: T2, human recombinant bradykinin B1 receptor (Homo sapiens, UniProt P46663); test: Human recombinant bradykinin B1 receptor competitive radioligand binding; settings: hB1 expressed in CHO cells, [3H]-[Des-Arg10] Kallidin radioligand; read-out: B1 binding
T2 construct: host or cells: CHO cells, clone hB1-A5
T2 sequence (P46663 1-353): T1 sequence (P46663 1-353)
Outline: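 Competition radioligand binding on CHO-expressed hB1 membranes, using [3,4-prolyl-3,4-^3H(N)]-[Des-Arg^10] Kallidin as tracer, 15 min at 25° C. Excess Lys-des-Arg^9-Bradykinin (10 μM) set nonspecific binding. Sigmoidal fits of at least seven concentrations gave IC50, converted to Ki via Cheng-Prusoff; KD from Scatchard.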

Compound: COC(=O)c1c(Cl)c2c(F)cccc2n1-c1ccc(CNC(=O)C2(NC(=O)c3cc(OC)no3)CC2)cc1 [Example 68, 3-Chloro-4-fluoro-1-{4-[({1-[(3-methoxy-isoxazole-5-carbonyl)-amino]-cyclo-propanecarbonyl}-amino)-methyl]-phenyl}-1H-indole-2-carboxylic acid methyl ester]
- IC50 [1]: < 20 nM
- Ki [2]: < 20 nM

Compound: Cc1nc(-c2c(Cl)c3cc(Cl)ccc3n2-c2ccc(CNC(=O)C3(NC(=O)c4ccnc(F)c4)CC3)cc2)no1 [Example 74, N-(1-{4-[3,5-Dichloro-2-(5-methyl-[1,2,4]oxadiazol-3-yl)-indol-1-yl]-benzylcarbamoyl}-cyclopropyl)-2-fluoro-isonicotinamide]
- IC50 [1]: < 20 nM
- Ki [2]: < 20 nM

Compound: COc1cc(C(=O)NC2(C(=O)NCc3ccc(-n4c(-c5ncc(C)o5)c(Cl)c5ccccc54)cc3)CC2)on1 [Example 38, 3-Methoxy-isoxazole-5-carboxylic acid (1-{4-[3-chloro-2-(5-methyl-oxazol-2-yl)-indol-1-yl]-benzylcarbamoyl}-cyclopropyl)-amide]
- IC50 [1]: 20 to 100 nM
- Ki [2]: < 20 nM

Compound: CCCc1cc(C(=O)NC2(C(=O)NCc3ccc(-n4c(-c5noc(C)n5)c(Cl)c5ccccc54)cc3)CC2)on1 [Example 42, 3-Propyl-isoxazole-5-carboxylic acid (1-{4-[3-chloro-2-(5-methyl-[1,2,4]oxadiazol-3-yl)-indol-1-yl]-benzylcarbamoyl}-cyclopropyl)-amide]
- IC50 [1]: < 20 nM
- Ki [2]: < 20 nM

Compound: Cc1nc(-c2c(Cl)c3cc(F)ccc3n2-c2ccc(CNC(=O)C3(NC(=O)c4cccnc4Cl)CC3)cc2)no1 [Example 85, 2-Chloro-N-(1-{4-[3-chloro-5-fluoro-2-(5-methyl-[1,2,4]oxadiazol-3-yl)-indol-1-yl]-benzylcarbamoyl}-cyclopropyl)-nicotinamide]
- IC50 [1]: < 20 nM
- Ki [2]: < 20 nM

Compound: Cc1cnc(C(=O)NC2(C(=O)NCc3ccc(-n4c(-c5noc(C)n5)c(Cl)c5cc(Cl)ccc54)cc3)CC2)cn1 [Example 72, 5-Methyl-pyrazine-2-carboxylic acid (1-{4-[3,5-dichloro-2-(5-methyl-[1,2,4]oxadiazol-3-yl)-indol-1-yl]-benzylcarbamoyl}-cyclopropyl)-amide]
- IC50 [1]: < 20 nM
- Ki [2]: < 20 nM

Compound: Cc1nc(-c2c(Cl)c3ccccc3n2-c2ccc(CNC(=O)C3(NC(=O)c4ccc(F)nc4)CC3)cc2)no1 [Example 99, N-(1-{4-[3-Chloro-2-(5-methyl-[1,2,4]oxadiazol-3-yl)-indol-1-yl]-benzylcarbamoyl}-cyclopropyl)-6-fluoro-nicotinamide]
- IC50 [1]: < 20 nM
- Ki [2]: < 20 nM

Compound: Cc1nc(-c2c(Cl)c3ccccc3n2-c2ccc(CNC(=O)C3(NC(=O)C4CCC4)CC3)cc2)no1 [Example 143, Cyclobutanecarboxylic acid (1-{4-[3-chloro-2-(5-methyl-[1,2,4]oxadiazol-3-yl)-indol-1-yl]-benzylcarbamoyl}-cyclopropyl)-amide]
- IC50 [1]: < 20 nM
- Ki [2]: < 20 nM

Compound: Cc1nc(-c2cc3ccccc3n2-c2ccc(CNC(=O)C3(NC(=O)CC(F)(F)F)CC3)cc2)no1 [Example 81, 1-(3,3,3-Trifluoro-propionylamino)-cyclopropanecarboxylic acid 4-[2-(5-methyl-[1,2,4]oxadiazol-3-yl)-indol-1-yl]-benzylamide]
- IC50 [1]: < 20 nM
- Ki [2]: < 20 nM

Compound: Cc1nc(-c2c(Cl)c3ccccc3n2-c2ccc(CNC(=O)C3(NC(=O)c4cnc5ccccc5c4)CC3)cc2)no1 [Example 159, Quinoline-3-carboxylic acid (1-{4-[3-chloro-2-(5-methyl-[1,2,4]oxadiazol-3-yl)-indol-1-yl]-benzylcarbamoyl}-cyclopropyl)-amide]
- IC50 [1]: < 20 nM
- Ki [2]: < 20 nM

Compound: Cc1nc(-c2c(Cl)c3ccccc3n2-c2ccc(CNC(=O)C3(NC(=O)c4cn[nH]c4)CC3)cc2)no1 [Example 141, 1H-Pyrazole-4-carboxylic acid (1-{4-[3-chloro-2-(5-methyl-[1,2,4]oxadiazol-3-yl)-indol-1-yl]-benzylcarbamoyl}-cyclopropyl)-amide]
- IC50 [1]: < 20 nM
- Ki [2]: < 20 nM

Compound: Cc1nc(-c2cc3cc(F)ccc3n2-c2ccc(CNC(=O)C3(NC(=O)c4cccnc4F)CC3)cc2)no1 [Example 120, 2-Fluoro-N-(1-{4-[5-fluoro-2-(5-methyl-[1,2,4]oxadiazol-3-yl)-indol-1-yl]-benzylcarbamoyl}-cyclopropyl)-nicotinamide]
- IC50 [1]: < 20 nM
- Ki [2]: < 20 nM

Compound: COC(=O)c1c(Cl)c2ccccc2n1-c1ccc(CNC(=O)C2(NC(=O)C(F)(F)F)CC2)cc1 [Example 10, 3-Chloro-1-[4-({[1-(2,2,2-trifluoro-acetylamino)-cyclopropanecarbonyl]-amino}-methyl)-phenyl]-1H-indole-2-carboxylic acid methyl ester]
- IC50 [1]: < 20 nM
- Ki [2]: < 20 nM

Compound: Cc1nc(-c2c(Cl)c3ccccc3n2-c2ccc(CNC(=O)C3(NC(=O)c4ccc(=O)[nH]c4)CC3)cc2)no1 [Example 160, 6-Oxo-1,6-dihydro-pyridine-3-carboxylic acid (1-{4-[3-chloro-2-(5-methyl-[1,2,4]oxadiazol-3-yl)-indol-1-yl]-benzylcarbamoyl}-cyclopropyl)-amide]
- IC50 [1]: < 20 nM
- Ki [2]: < 20 nM

Compound: COc1cc(C(=O)NC2(C(=O)NCc3ccc(-n4c(-c5noc(=O)n5C)c(Cl)c5ccccc54)cc3)CC2)on1 [Example 201, 3-Methoxy-isoxazole-5-carboxylic acid (1-{4-[3-chloro-2-(4-methyl-5-oxo-4,5-dihydro-[1,2,4]oxadiazol-3-yl)-indol-1-yl]-benzylcarbamoyl}-cyclopropyl)-amide]
- IC50 [1]: < 20 nM
- Ki [2]: < 20 nM

Compound: COc1ccc2c(c1)c(Cl)c(-c1nc(C)no1)n2-c1ccc(CNC(=O)C2(NC(=O)c3cncc(C(F)(F)F)c3)CC2)cc1 [Example 50, N-(1-{4-[3-Chloro-5-methoxy-2-(3-methyl-[1,2,4]oxadiazol-5-yl)-indol-1-yl]-benzyl-carbamoyl}-cyclopropyl)-5-trifluoromethyl-nicotinamide]
- IC50 [1]: < 20 nM
- Ki [2]: < 20 nM

Compound: COc1cc(C(=O)NC2(C(=O)NCc3ccc(-n4c(-c5nnn(C)n5)c(Cl)c5ccccc54)cc3)CC2)on1 [Example 2, 3-Methoxy-isoxazole-5-carboxylic acid (1-{4-[3-chloro-2-(2-methyl-2H-tetrazol-5-yl)-indol-1-yl]-benzylcarbamoyl}-cyclopropyl)-amide]
- IC50 [1]: < 20 nM
- Ki [2]: < 20 nM

Compound: COc1cc(C(=O)NC2(C(=O)NCc3ccc(-n4c(C(=O)N(C)C)c(Cl)c5ccccc54)cc3)CC2)on1 [Example 35, 3-Chloro-1-{4-[({1-[(3-methoxy-isoxazole-5-carbonyl)-amino]-cyclopropane-carbonyl}-amino)-methyl]-phenyl}-1H-indole-2-carboxylic acid dimethylamide]
- IC50 [1]: 20 to 100 nM
- Ki [2]: < 20 nM

Compound: Cc1nc(-c2c(Cl)c3ccccc3n2-c2ccc(CNC(=O)C3(NC(=O)C=Cc4ccco4)CC3)cc2)no1 [Example 171, 1-(3-Furan-2-yl-acryloylamino)-cyclopropanecarboxylic acid 4-[3-chloro-2-(5-methyl-[1,2,4]oxadiazol-3-yl)-indol-1-yl]-benzylamide]
- IC50 [1]: 20 to 100 nM
- Ki [2]: < 20 nM

Compound: COc1ccc2c(c1)cc(-c1nnc(C)o1)n2-c1ccc(CNC(=O)C2(NC(=O)c3cncc(C(F)(F)F)c3)CC2)cc1 [Example 125, N-(1-{4-[5-Methoxy-2-(5-methyl-[1,3,4]oxadiazol-2-yl)-indol-1-yl]-benzylcarbamoyl}-cyclopropyl)-5-trifluoromethyl-nicotinamide]
- IC50 [1]: < 20 nM
- Ki [2]: < 20 nM

Compound: Cn1nnc(-c2c(Cl)c3ccccc3n2-c2ccc(CNC(=O)C3(NC(=O)c4cccnc4F)CC3)cc2)n1 [Example 119, N-(1-{4-[3-Chloro-2-(2-methyl-2H-tetrazol-5-yl)-indol-1-yl]-benzylcarbamoyl}-cyclopropyl)-2-fluoro-nicotinamide]
- IC50 [1]: < 20 nM
- Ki [2]: < 20 nM

Compound: COc1cc(C(=O)NC2(C(=O)NCc3ccc(-n4c(-c5nnn(C)n5)cc5ccccc54)cc3)CC2)on1 [Example 3, 3-Methoxy-isoxazole-5-carboxylic acid (1-{4-[2-(2-methyl-2H-tetrazol-5-yl)-indol-1-yl]-benzylcarbamoyl}-cyclopropyl)-amide]
- IC50 [1]: < 20 nM
- Ki [2]: < 20 nM

Compound: COc1cccc(C(=O)NC2(C(=O)NCc3ccc(-n4c(-c5noc(C)n5)c(Cl)c5ccccc54)cc3)CC2)c1 [Example 175, N-(1-{4-[3-Chloro-2-(5-methyl-[1,2,4]oxadiazol-3-yl)-indol-1-yl]-benzylcarbamoyl}-cyclopropyl)-3-methoxy-benzamide]
- IC50 [1]: 20 to 100 nM
- Ki [2]: < 20 nM

Compound: COc1ccc2c(c1)c(Cl)c(-c1nc(C)no1)n2-c1ccc(CNC(=O)C2(NC(=O)c3cc(OC)no3)CC2)cc1 [Example 51, 3-Methoxy-isoxazole-5-carboxylic acid (1-{4-[3-chloro-5-methoxy-2-(3-methyl-[1,2,4]oxadiazol-5-yl)-indol-1-yl]-benzylcarbamoyl}-cyclopropyl)-amide]
- IC50 [1]: < 20 nM
- Ki [2]: < 20 nM
